Results as given in ChEMBL document CHEMBL3351801, “Phragmalin-type limonoids with NF-κB inhibition from Chukrasia tabularis var. velutina” (Bioorg Med Chem Lett, 2014).

Assays:
Assay type in all cases: cell-based
[1] = biological target: T1, Nuclear factor NF-kappa-B complex (Homo sapiens) (UniProt Q00653+P19838+Q04206); experiment: Inhibition of LPS-induced NF-kappaB (unknown origin) expressed in HEK293 cells at 100 ug/ml after 4 hrs by luciferase reporter gene assay relative to LPS-treated control
[2] = biological target: T1, Nuclear factor NF-kappa-B complex (Homo sapiens); experiment: Inhibition of LPS-induced NF-kappaB (unknown origin) expressed in HEK293 cells at 10 ug/ml after 4 hrs by luciferase reporter gene assay relative to LPS-treated control
[3] = biological target: T1, Nuclear factor NF-kappa-B complex (Homo sapiens); experiment: Inhibition of LPS-induced NF-kappaB (unknown origin) expressed in HEK293 cells at 1 ug/ml after 4 hrs by luciferase reporter gene assay relative to LPS-treated control

T1 sequence (P19838 whole entry, looked up): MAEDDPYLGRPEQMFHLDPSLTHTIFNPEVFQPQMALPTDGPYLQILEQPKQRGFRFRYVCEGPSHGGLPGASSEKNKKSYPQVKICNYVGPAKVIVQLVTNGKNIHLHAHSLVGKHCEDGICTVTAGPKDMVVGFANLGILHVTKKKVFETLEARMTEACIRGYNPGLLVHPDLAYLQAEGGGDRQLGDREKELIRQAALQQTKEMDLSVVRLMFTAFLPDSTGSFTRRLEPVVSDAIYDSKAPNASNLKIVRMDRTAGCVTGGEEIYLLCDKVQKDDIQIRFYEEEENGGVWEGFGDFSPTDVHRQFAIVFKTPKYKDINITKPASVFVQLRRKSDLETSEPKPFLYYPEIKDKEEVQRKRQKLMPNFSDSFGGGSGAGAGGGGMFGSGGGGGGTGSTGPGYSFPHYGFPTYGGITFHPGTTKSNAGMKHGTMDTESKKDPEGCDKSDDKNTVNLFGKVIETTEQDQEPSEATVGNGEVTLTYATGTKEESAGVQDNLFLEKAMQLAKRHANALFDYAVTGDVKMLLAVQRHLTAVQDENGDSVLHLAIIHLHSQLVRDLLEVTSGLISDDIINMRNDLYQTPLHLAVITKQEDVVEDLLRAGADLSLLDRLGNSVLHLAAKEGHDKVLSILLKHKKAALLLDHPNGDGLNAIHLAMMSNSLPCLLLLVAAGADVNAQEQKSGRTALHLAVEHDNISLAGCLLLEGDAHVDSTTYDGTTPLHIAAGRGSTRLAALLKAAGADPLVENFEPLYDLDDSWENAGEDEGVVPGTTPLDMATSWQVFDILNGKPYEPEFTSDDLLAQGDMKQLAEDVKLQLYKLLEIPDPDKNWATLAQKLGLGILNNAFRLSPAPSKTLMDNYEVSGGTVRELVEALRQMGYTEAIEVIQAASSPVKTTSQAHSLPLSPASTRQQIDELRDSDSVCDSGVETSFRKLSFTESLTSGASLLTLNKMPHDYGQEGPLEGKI
T1 sequence (Q00653 whole entry, looked up): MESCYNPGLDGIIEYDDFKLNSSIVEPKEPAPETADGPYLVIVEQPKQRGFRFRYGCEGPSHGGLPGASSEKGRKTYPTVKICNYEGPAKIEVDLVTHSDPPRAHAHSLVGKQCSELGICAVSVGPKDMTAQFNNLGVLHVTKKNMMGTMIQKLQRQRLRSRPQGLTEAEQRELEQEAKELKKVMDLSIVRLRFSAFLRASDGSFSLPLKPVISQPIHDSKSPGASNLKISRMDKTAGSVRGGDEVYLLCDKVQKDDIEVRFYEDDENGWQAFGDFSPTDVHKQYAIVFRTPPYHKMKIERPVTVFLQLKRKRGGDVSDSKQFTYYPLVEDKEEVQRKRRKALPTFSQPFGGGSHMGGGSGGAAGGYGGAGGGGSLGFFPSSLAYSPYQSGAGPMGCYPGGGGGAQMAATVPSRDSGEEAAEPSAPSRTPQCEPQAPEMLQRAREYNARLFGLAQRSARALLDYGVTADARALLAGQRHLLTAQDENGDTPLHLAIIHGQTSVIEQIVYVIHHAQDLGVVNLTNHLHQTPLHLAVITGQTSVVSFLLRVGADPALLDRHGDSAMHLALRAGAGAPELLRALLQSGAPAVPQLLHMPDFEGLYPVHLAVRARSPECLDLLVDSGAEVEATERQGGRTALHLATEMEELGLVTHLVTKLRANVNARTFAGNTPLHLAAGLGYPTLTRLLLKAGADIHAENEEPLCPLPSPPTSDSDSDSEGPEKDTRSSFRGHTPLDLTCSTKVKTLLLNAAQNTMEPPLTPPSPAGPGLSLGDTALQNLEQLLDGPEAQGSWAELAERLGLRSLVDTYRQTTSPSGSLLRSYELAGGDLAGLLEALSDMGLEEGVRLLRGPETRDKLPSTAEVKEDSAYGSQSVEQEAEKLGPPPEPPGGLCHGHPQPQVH
T1 sequence (Q04206 whole entry, looked up): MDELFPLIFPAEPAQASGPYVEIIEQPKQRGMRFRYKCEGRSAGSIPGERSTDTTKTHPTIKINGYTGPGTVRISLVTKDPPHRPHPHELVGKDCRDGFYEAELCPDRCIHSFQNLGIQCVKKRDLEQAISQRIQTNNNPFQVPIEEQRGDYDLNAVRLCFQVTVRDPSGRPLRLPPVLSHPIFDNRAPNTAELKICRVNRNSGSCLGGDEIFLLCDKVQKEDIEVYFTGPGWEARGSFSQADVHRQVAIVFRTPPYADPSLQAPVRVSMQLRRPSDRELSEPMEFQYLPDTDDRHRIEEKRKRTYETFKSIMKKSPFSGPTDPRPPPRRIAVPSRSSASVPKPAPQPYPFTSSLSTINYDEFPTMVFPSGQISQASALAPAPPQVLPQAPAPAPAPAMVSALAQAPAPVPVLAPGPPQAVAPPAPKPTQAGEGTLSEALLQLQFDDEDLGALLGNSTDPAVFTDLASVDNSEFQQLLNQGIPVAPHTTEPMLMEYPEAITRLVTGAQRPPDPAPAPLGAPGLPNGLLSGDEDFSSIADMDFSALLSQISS

Row | Compound | Ratio [1] | Ratio [2] | Ratio [3]
1 | CC(=O)O[C@@H]1[C@H](OC(C)=O)[C@@](C)([C@@H](OC(C)=O)c2ccoc2)[C@H]2CC3(C(C)C)O[C@@H]4[C@@]5(OC(C)=O)[C@@H](OC(C)=O)[C@@]6(C)C[C@@]5(O)[C@]5(COC(=O)C[C@@H]65)[C@]1(O)[C@@]24O3 | 0.3 | 0.25 | 0.17
2 | COC(=O)C[C@H]1[C@]2(C)C[C@]3(O)[C@@](O)([C@@H](OC(=O)C(C)C)[C@]45OC6(C)O[C@H]([C@H](O)[C@]78C[C@@]74[C@@H](OC(C)=O)C(=O)O[C@H]8c4ccoc4)[C@]5(O6)[C@]13C)[C@H]2OC(C)=O | 0.17 | 0.1 | 0.1
3 | CCC12C[C@@H]3[C@](C)([C@@H](OC(C)=O)c4ccoc4)[C@@H](OC(C)=O)[C@@H](OC(C)=O)[C@@]4(O)[C@]3(O1)[C@H](O2)[C@@]1(O)[C@@H](OC(C)=O)[C@@]2(C)C[C@@]1(O)[C@@]4(C)[C@H]2CC(=O)OC | 0.17 | 0.08 | 0.12
4 | COC(=O)[C@H](OC(C)=O)[C@H]1[C@]2(C)C[C@]3(O)[C@@](O)([C@@H](OC(=O)C(C)C)[C@]45OC6(C)O[C@H]([C@H](O)[C@]78C[C@@]74[C@@H](OC(C)=O)C(=O)O[C@H]8c4ccoc4)[C@]5(O6)[C@]13C)[C@H]2OC(C)=O | 0.1 | 0.1 | 0.05
5 | COC(=O)C[C@H]1[C@]2(C)C[C@]3(O)[C@@](O)([C@H]4OC(C)=C[C@@H]5[C@](C)([C@@H](OC(C)=O)c6ccoc6)[C@@H](OC(C)=O)[C@@H](OC(C)=O)[C@]6(OC(=O)O[C@]546)[C@]13C)[C@H]2O | 0.86 | 0.57 | 0.69
6 | COC(=O)C[C@H]1[C@]2(C)C[C@]3(O)[C@@](OC(C)=O)([C@H]4OC5(C)C[C@@H]6[C@](C)([C@@H](OC(C)=O)c7ccoc7)[C@@H](OC(C)=O)[C@@H](OC(C)=O)[C@@](O)([C@@]64O5)[C@]13COC(C)=O)[C@H]2OC(C)=O | 0.8 | 0.34 | 0.23
7 | CC/C(O)=C1/C(=O)O[C@@H]2[C@@]3(O)[C@@H](OC(C)=O)[C@@]4(C)C[C@]35OC3(C)O[C@]26[C@H]1[C@](C)([C@@H](OC(C)=O)c1ccoc1)[C@@H](OC(C)=O)[C@@H](O)[C@]6(O3)[C@]5(COC(C)=O)[C@H]4CC(=O)OC | 0.35 | 0.3 | 0.23
8 | COC(=O)[C@H](OC(C)=O)[C@H]1[C@]2(C)C[C@]3(O)[C@@](O)([C@H]4OC(=O)[C@@H]5O[C@@H](c6ccoc6)[C@@]67C[C@@]56[C@]4(O)[C@](O)([C@H](OC(=O)C(C)C)[C@@H]7OC(C)=O)[C@]13C)[C@H]2OC(C)=O | 0.3 | 0.27 | 0.14
9 | COC(=O)[C@H](OC(C)=O)[C@H]1[C@]2(C)C[C@]3(O)[C@@](OC(=O)C(C)C)([C@H]4OC5(C)O[C@@]6([C@H](O)[C@H](OC(C)=O)[C@]78C[C@]7([C@@H](OC(C)=O)C(=O)O[C@H]8c7ccoc7)[C@@]46O5)[C@]13C)[C@H]2OC(C)=O | 0.24 | 0.05 | 0.13
10 | C[C@]12CCC(=O)C=C1CC[C@@H]1[C@@H]2[C@@H](O)C[C@@]2(C)[C@H]1CC[C@]2(O)C(=O)CO | 0.6 | 0.37 | 0.29
11 | COC(=O)C[C@H]1[C@]2(C)C[C@@]34OC5(C)O[C@]6([C@@H]7/C(=C(\C)O)C(=O)O[C@@H](c8ccoc8)[C@]7(C)[C@@H](OC(C)=O)[C@@H](O)[C@]6(O5)[C@]13COC(C)=O)[C@H](OC(C)=O)[C@@]4(OC(C)=O)[C@H]2OC(C)=O | 0.62 | 0.33 | 0.25
12 | CCC12C[C@@H]3[C@](C)([C@@H](OC(C)=O)c4ccoc4)[C@@H](OC(C)=O)[C@@H](OC(C)=O)[C@@]4(O)[C@]3(O1)[C@H](O2)[C@@]1(O)[C@@H](OC(C)=O)[C@@]2(C)C[C@@]1(O)[C@]41COC(=O)C[C@@H]21 | 0.31 | 0.26 | 0.16
13 | CCC1=C[C@@H]2[C@](C)([C@@H](OC(C)=O)c3ccoc3)[C@@H](OC(C)=O)[C@@H](OC(C)=O)[C@@]34OC(=O)O[C@@]23[C@H](O1)[C@@]1(O)[C@@H](O)[C@@]2(C)C[C@@]1(O)[C@@]4(C)[C@H]2CC(=O)OC | 0.26 | 0.14 | 0.16
14 | CC/C(O)=C1/C(=O)O[C@@H]2[C@@]3(OC(C)=O)[C@@H](OC(C)=O)[C@@]4(C)C[C@]35OC3(C)O[C@]26[C@H]1[C@](C)([C@@H](OC(C)=O)c1ccoc1)[C@@H](OC(C)=O)[C@@H](O)[C@]6(O3)[C@]5(COC(C)=O)[C@H]4CC(=O)OC | 0.45 | 0.33 | 0.23
15 | CC(=O)O[C@@H]1[C@H](OC(C)=O)[C@@](C)([C@@H](OC(C)=O)c2ccoc2)[C@H]2CC3(C)O[C@@H]4[C@@]5(OC(C)=O)[C@@H](OC(C)=O)[C@@]6(C)C[C@@]5(O)[C@]5(COC(=O)C[C@@H]65)[C@]1(O)[C@@]24O3 | 0.42 | 0.27 | 0.25
16 | CCC12C[C@@H]3[C@](C)([C@@H](OC(C)=O)c4ccoc4)[C@@H](OC(C)=O)[C@@H](OC(C)=O)[C@@]4(O)[C@]3(O1)[C@H](O2)[C@@]1(OC(C)=O)[C@@H](OC(C)=O)[C@@]2(C)C[C@@]1(O)[C@@]4(C)[C@H]2CC(=O)OC | 0.75 | 0.39 | 0.61
17 | CC/C(O)=C1/C(=O)O[C@@H]2[C@@]3(O)[C@@H](OC(C)=O)[C@@]4(C)C[C@]35OC3(C)O[C@]26[C@H]1[C@](C)([C@@H](OC(C)=O)c1ccoc1)[C@@H](OC(C)=O)[C@@H](OC(C)=O)[C@]6(O3)[C@]5(COC(C)=O)[C@H]4CC(=O)OC | 0.45 | 0.27 | 0.13
18 | COC(=O)C[C@H]1[C@]2(C)C[C@]3(O)[C@@](OC(C)=O)([C@H]4OC5(C)C[C@@H]6[C@](C)([C@@H](OC(C)=O)c7ccoc7)[C@@H](OC(C)=O)[C@@H](OC(C)=O)[C@@](O)([C@@]64O5)[C@]13C)[C@H]2OC(C)=O | 0.32 | 0.33 | 0.21
19 | CCC(=O)O[C@@H]1[C@@]2(O)[C@@H](OC(C)=O)[C@@]3(C)C[C@]24OC2(C)O[C@]15[C@@H]1CC(=O)O[C@@H](c6ccoc6)[C@]1(C)[C@@H](OC(C)=O)[C@@H](O)[C@]5(O2)[C@]4(COC(C)=O)[C@H]3CC(=O)OC | 0.32 | 0.26 | 0.18
20 | CCC12C[C@@H]3[C@](C)([C@@H](OC(C)=O)c4ccoc4)[C@@H](OC(C)=O)[C@@H](OC(C)=O)[C@@]4(O)[C@]3(O1)[C@H](O2)[C@@]1(OC(C)=O)[C@@H](OC(C)=O)[C@@]2(C)C[C@@]1(O)[C@]41COC(=O)C[C@@H]21 | 0.31 | 0.34 | 0.09
21 | CC/C(O)=C1/C(=O)O[C@@H]2[C@@]3(O)[C@@H](OC(C)=O)[C@@]4(C)C[C@]35OC3(C)O[C@]26[C@H]1[C@](C)([C@@H](OC(C)=O)c1ccoc1)[C@@H](OC(=O)C(C)C)[C@@H](OC(=O)C(C)C)[C@]6(O3)[C@@]51COC(=O)C[C@@H]41 | 0.29 | 0.18 | 0.11
22 | COC(=O)C[C@H]1[C@]2(C)C[C@]3(O)[C@@](O)([C@@H](OC(=O)C(C)C)[C@]45OC6(C)O[C@H]([C@H](OC(C)=O)[C@]78C[C@@]74[C@@H](OC(C)=O)C(=O)O[C@H]8c4ccoc4)[C@]5(O6)[C@]13C)[C@H]2OC(C)=O | 0.35 | 0.32 | 0.12
23 | COC(=O)[C@H](O)[C@H]1[C@]2(C)C[C@]3(O)[C@@](O)([C@H]4OC5(C)C[C@@H]6[C@](C)([C@@H](OC(C)=O)c7ccoc7)[C@@H](OC(C)=O)[C@@H](OC(C)=O)[C@@](O)([C@@]64O5)[C@]13C)[C@H]2O | 0.56 | 0.2 | 0.33
24 | CCC12C[C@@H]3[C@](C)([C@@H](OC(C)=O)c4ccoc4)[C@@H](O)[C@@H](OC(C)=O)[C@@]4(O)[C@]3(O1)[C@H](O2)[C@@]1(OC(C)=O)[C@@H](O)[C@@]2(C)C[C@@]1(O)[C@@]4(C)[C@H]2[C@@H](O)C(=O)OC | 0.3 | 0.23 | 0.1
25 | CCC12C[C@@H]3[C@](C)([C@@H](OC(C)=O)c4ccoc4)[C@@H](O)[C@@H](O)[C@@]4(O)[C@]3(O1)[C@H](O2)[C@@]1(OC(C)=O)[C@@H](OC(C)=O)[C@@]2(C)C[C@@]1(O)[C@]41COC(=O)C[C@@H]21 | 0.59 | 0.48 | 0.33
26 | CCC12C[C@@H]3[C@](C)([C@@H](OC(C)=O)c4ccoc4)[C@@H](OC(C)=O)[C@@H](OC(C)=O)[C@@]4(O)[C@]3(O1)[C@H](O2)[C@@]1(OC(C)=O)[C@@H](OC(C)=O)[C@@]2(C)C[C@@]1(O)[C@@]4(COC(C)=O)[C@H]2CC(=O)OC | 0.53 | 0.38 | 0.36
27 | COC(=O)[C@H](OC(C)=O)[C@H]1[C@]2(C)C[C@]3(O)[C@@](OC(=O)C(C)C)([C@H]4OC5(C)O[C@@]6([C@H](O)[C@H](O)[C@]78C[C@]7([C@@H](OC(C)=O)C(=O)O[C@H]8c7ccoc7)[C@@]46O5)[C@]13C)[C@H]2OC(C)=O | 0.44 | 0.32 | 0.09
28 | COC(=O)[C@H](OC(C)=O)[C@H]1[C@]2(C)C[C@]3(O)[C@@](O)([C@@H](OC(=O)C(C)C)[C@]45OC6(C)O[C@H]([C@H](OC(C)=O)[C@]78C[C@@]74[C@@H](OC(C)=O)C(=O)O[C@H]8c4ccoc4)[C@]5(O6)[C@]13C)[C@H]2OC(C)=O | 0.62 | 0.55 | 0.37
29 | COC(=O)[C@H](O)[C@H]1[C@]2(C)C[C@]3(O)[C@@](O)([C@@H](OC(=O)C(C)C)[C@]45OC6(C)O[C@H]([C@H](OC(C)=O)[C@]78C[C@@]74[C@@H](OC(C)=O)C(=O)O[C@H]8c4ccoc4)[C@]5(O6)[C@]13C)[C@H]2OC(C)=O | 0.34 | 0.15 | 0.22
